Reference: patent US20240316136A1, “ANESTHETIC METHOD OF SPOTTED SEABASS WITH PLANT ESSENTIAL OILS” (Shanghai Ocean University, priority 2024, published 2024)

Key:
Assay type in all cases: in vivo, Lateolabrax maculatus
[1] = tested on: spotted seabass gill tissue; assay: Gill tissue histopathology by light microscope after anesthesia
Protocol: • 1. Healthy spotted seabass with uniform sizes and uniform respiration rates were selected and acclimated for 24 h. During the acclimatization period, the water temperature was 22±1° C., the salinity was 16%, the dissolved oxygen was 6 mg/L, pH was 7.5, and the fish-water ratio was 1:50. The metabolic wastes of the spotted seabass were discharged during acclimatization period. • 2. The emulsified Cinnamomum camphora essential oils were added to the aquariums respectively. The water temperature was controlled at 22±1° C. The concentrations of the emulsified Cinnamomum camphora essential oil were 10, 20, 30, 50, 100, 150, 200 mg/L, respectively, and the same concentrations of MS-222 anesthesia solution and linalool solution were prepared at the same time. • 3. The spotted seabass were transferred to aquariums (5 fish per aquarium) with different concentrations of the Cinnamomum camphora essential oil, MS-222 and linalool anesthetics, and anesthetic concentrations, sedation concentrations and duration of anesthesia were recorded for the spotted seabass. • 4. The fish were extracted once deep anesthesia was achieved. Recovery was defined as the restoration of fish to their typical swimming behavior; the resuscitation time of the spotted seabass were recorded. • 5. The optimal concentration range was obtained, and oxidative stress and tissue injury were measured. […]

spotted seabass [2] = assay: Energy metabolism indexes (glucose, lactic acid); conditions: P<0.05
Protocol: (§1) In accordance with the principles and guiding regulations established by the Animal Protection and Utilization Committee of Shanghai Ocean University (SHOU-DW-2022-059), 200 mg/L MS-222 was used to anesthetize fish. Venous-arterial blood samples were obtained from the caudal vein using a 1 mL syringe with 10% EDTA as an anticoagulant and then preserved in anticoagulation tubes. In addition, another portion of the blood was collected without anticoagulant, then kept at 4° C. for a duration of 12 hours for stationary. The coagulated blood was centrifuged at 4000×g for 20 min at 4° C. The serum was extracted and placed in the refrigerator at −40° C. for testing.
(§2) Acid phosphatase (ACP), glucose (GLU) and lactic acid (LD) kits (Nanjing Jiancheng Bioengineering Institute, Nanjing, China) were used to measure ACP, GLU and LD levels.

spotted seabass [3] = assay: Oxidative stress indicators (SOD, CAT, GSH-Px) in blood
Protocol: as §1
Superoxide Dismutase (SOD), Catalase (CAT) and Glutathione Peroxidase (GSH-Px) kits (Nanjing Jiancheng Bioengineering Institute, Nanjing, China) were used to determine SOD, CAT and GSH-Px activities in blood.

spotted seabass [4] = assay: Immunological indicators (ACP/AKP, IgM, LZM) in serum
Protocol: as §1, §2
Lysozyme (LZM) activity was determined by the method of De Souza et al. Serum immunoglobulin M (IgM) concentration was measured using a fish ELISA kit (Nanjing Jiancheng Bioengineering Institute, Nanjing, China).

spotted seabass [5] = assay: Blood biochemical analysis (RBC, HCT, HGB); conditions: after deep anesthesia; comparison between anesthetic groups, p<0.05
Protocol: as §1
Red blood cell count (RBC), haematocrit (HCT), and hemoglobin (HGB) in blood samples were measured in a Myriad Veterinary Automatic Blood Cell Analyser (BC-2800vet, Shenzhen, China).

spotted seabass [6] = assay: Sedation, anesthesia induction and resuscitation time of spotted seabass in anesthetic bath; parameters: key to Stage IV (deep anesthesia) time / Resuscitation time / Stage I (light sedation) time / Stage II (deep sedation) time / Stage III (light anesthesia) time: —: No anesthetic effect
Protocol: • 1. Healthy spotted seabass with uniform sizes and uniform respiration rates were selected and acclimated for 24 h. During the acclimatization period, the water temperature was 22±1° C., the salinity was 16%, the dissolved oxygen was 6 mg/L, pH was 7.5, and the fish-water ratio was 1:50. The metabolic wastes of the spotted seabass were discharged during acclimatization period. • 2. The emulsified Cinnamomum camphora essential oils were added to the aquariums respectively. The water temperature was controlled at 22±1° C. […] The spotted seabass were transferred to aquariums (5 fish per aquarium) with different concentrations of the Cinnamomum camphora essential oil, MS-222 and linalool anesthetics, and anesthetic concentrations, sedation concentrations and duration of anesthesia were recorded for the spotted seabass. • 4. The fish were extracted once deep anesthesia was achieved. Recovery was defined as the restoration of fish to their typical swimming behavior; the resuscitation time of the spotted seabass were recorded. • 5. The optimal concentration range was obtained, and oxidative stress and tissue injury were measured. [table] One-way analysis of variance (ANOVA) was used to evaluate the data (anesthetic induction and recovery time) using SPSS 26.0 software (SPSS Inc., Chicago, IL, USA). The significant variation was determined using Duncan's multiple range test (P<0.05). Graphs were created using Origin software.

[7] = after 24 h of recovery, vs MS-222 and Cinnamomum camphora essential oil
[8] = after 24 h of recovery, vs initial
[9] = 100 mg/L in water, listed as linalool

Gill tissue histopathological changes [1]: swollen lamellar epithelium
Glucose concentration (spotted seabass [2]; [7]): higher
Lactic acid concentration (spotted seabass [2]; [7]): lower
Glucose concentration (spotted seabass [2]; after anesthesia, comparison between anesthetic groups): Greater
Lactic acid level (spotted seabass [2]; after anesthesia, vs MS-222 and Cinnamomum camphora essential oil): greater
GSH-Px activity (spotted seabass [3]; [8]): still higher than the initial levels
SOD activity (spotted seabass [3]; [8]): still higher than the initial levels
SOD, CAT and GSH-Px activities (spotted seabass [3]; after anesthesia): increasing trend
IgM concentration (spotted seabass [4]; after anesthesia): decreased
LZM activity (spotted seabass [4]; after anesthesia, change from initial): increased
LZM activity (spotted seabass [4]; after anesthesia, comparison between anesthetic groups, P<0.05): higher
ACP activity (spotted seabass [4]; after anesthesia, vs MS-222 and Cinnamomum camphora essential oil, P<0.05): higher
AKP activity (spotted seabass [4]; on exposure to anesthetic): increased
Percentage of hematocrit (spotted seabass [5]): lower
SMILES: C=CC(C)(O)CCC=C(C)C (centres unmarked) [Linalool, 1,6-Octadien-3-ol,3,7-dimethyl]
Resuscitation time (spotted seabass [6]; 5 mg/L in water): —
Stage I (light sedation) time (spotted seabass [6]; 5 mg/L in water): —
Stage II (deep sedation) time (spotted seabass [6]; 5 mg/L in water): —
Stage III (light anesthesia) time (spotted seabass [6]; 5 mg/L in water): —
Stage IV (deep anesthesia) time (spotted seabass [6]; 5 mg/L in water): —
Resuscitation time (spotted seabass [6]; 10 mg/L in water): —
Stage I (light sedation) time (spotted seabass [6]; 10 mg/L in water): 88.67 ± 3.21 s
Stage II (deep sedation) time (spotted seabass [6]; 10 mg/L in water): —
Stage III (light anesthesia) time (spotted seabass [6]; 10 mg/L in water): —
Stage IV (deep anesthesia) time (spotted seabass [6]; 10 mg/L in water): —
Resuscitation time (spotted seabass [6]; 20 mg/L in water): —
Stage I (light sedation) time (spotted seabass [6]; 20 mg/L in water): 70.00 ± 3.00 s
Stage II (deep sedation) time (spotted seabass [6]; 20 mg/L in water): 97.00 ± 4.58 s
Stage III (light anesthesia) time (spotted seabass [6]; 20 mg/L in water): —
Stage IV (deep anesthesia) time (spotted seabass [6]; 20 mg/L in water): —
Resuscitation time (spotted seabass [6]; 30 mg/L in water): —
Stage I (light sedation) time (spotted seabass [6]; 30 mg/L in water): 60.00 ± 3.00 s
Stage II (deep sedation) time (spotted seabass [6]; 30 mg/L in water): 84.67 ± 3.51 s
Stage III (light anesthesia) time (spotted seabass [6]; 30 mg/L in water): 103.33 ± 3.51 s
Stage IV (deep anesthesia) time (spotted seabass [6]; 30 mg/L in water): —
Resuscitation time (spotted seabass [6]; 50 mg/L in water): 235.00 ± 2.00 s
Stage I (light sedation) time (spotted seabass [6]; 50 mg/L in water): 42.67 ± 3.51 s
Stage III (light anesthesia) time (spotted seabass [6]; 50 mg/L in water): 115.00 ± 4.00 s
Stage IV (deep anesthesia) time (spotted seabass [6]; 50 mg/L in water): 323.33 ± 2.52 s
Resuscitation time (spotted seabass [6]; 100 mg/L in water): 255.33 ± 2.08 s
Stage I (light sedation) time (spotted seabass [6]; 100 mg/L in water): 31.67 ± 1.15 s
Stage III (light anesthesia) time (spotted seabass [6]; 100 mg/L in water): 103.67 ± 2.52 s
Stage IV (deep anesthesia) time (spotted seabass [6]; 100 mg/L in water): 213.00 ± 1.73 s
Resuscitation time (spotted seabass [6]; [9]): 344.00 s
Stage IV (deep anesthesia) time (spotted seabass [6]; [9]): 155.33 s
Resuscitation time (spotted seabass [6]; 150 mg/L in water): 270.00 ± 3.00 s
Stage I (light sedation) time (spotted seabass [6]; 150 mg/L in water): 22.33 ± 2.52 s
Stage II (deep sedation) time (spotted seabass [6]; 150 mg/L in water): 44.00 ± 2.65 s
Stage III (light anesthesia) time (spotted seabass [6]; 150 mg/L in water): 91.67 ± 1.53 s
Stage IV (deep anesthesia) time (spotted seabass [6]; 150 mg/L in water): 155.33 ± 3.51 s
Resuscitation time (spotted seabass [6]; 200 mg/L in water): 310.00 ± 3.00 s
Stage I (light sedation) time (spotted seabass [6]; 200 mg/L in water): 16.00 ± 1.00 s
Stage II (deep sedation) time (spotted seabass [6]; 200 mg/L in water): 37.00 ± 1.73 s
Stage III (light anesthesia) time (spotted seabass [6]; 200 mg/L in water): 86.00 ± 2.65 s
Stage IV (deep anesthesia) time (spotted seabass [6]; 200 mg/L in water): 141.00 ± 5.29 s
Optimal anesthetic concentration (spotted seabass [6]; criterion: induction in around 3 min and recovery within 5 min): 100 mg/L
Concentration showing deep sedation (spotted seabass [6]; in vivo): 20 mg/L
Concentration showing light anesthesia effect (Stage III) (spotted seabass [6]; in vivo): 30 mg/L
Concentration showing light sedation effect (Stage I) (spotted seabass [6]; in vivo): 10 mg/L
Minimum concentration required to achieve profound anesthesia (Stage IV) (spotted seabass [6]; in vivo, iv): 50 mg/L
